The source of these data is PubChem BioAssay (NCI).

Test systems include COLO 205 colon; M14 melanoma; MDA-MB-435; NCI-H23 lung; NCI-H522 lung; OVCAR-3 ovarian; OVCAR-8 ovarian; PC-3 prostate; SK-MEL-2 melanoma; SN12C renal.
Assay in all cases: inhibition of tumour cell growth, NCI panel, 48 h

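Cultured in 96-well plates, cells were exposed to test compound for 48 hours across five concentrations. Abbreviation: GI50, concentration required for 50% inhibition of growth. TGI is the concentration that stops growth completely.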

Regarding `O=C(/C=C/c1ccc(Cl)cc1)c1ccc(Nc2ccnc3cc(Cl)ccc23)cc1`, the GI50 in the assay on COLO 205 colon was 31.9 µM; with M14 melanoma, 26.8 µM; in the assay with MDA-MB-435, 9.3 µM; in the assay on NCI-H23 lung it was > 100 µM; in the assay on NCI-H522 lung, > 100 µM; with OVCAR-3 ovarian, 32 µM. For the same molecule, the GI50 was > 100 µM in the assay on OVCAR-8 ovarian, > 53.6 µM in the assay with PC-3 prostate, > 100 µM with SK-MEL-2 melanoma and > 100 µM in the assay on SN12C renal. In addition, the TGI in the assay with COLO 205 colon, with M14 melanoma, with MDA-MB-435, in the assay on NCI-H23 lung, in the assay on NCI-H522 lung and in the assay on OVCAR-3 ovarian was > 100 µM each time. Moreover, the TGI with OVCAR-8 ovarian, in the assay with PC-3 prostate, in the assay with SK-MEL-2 melanoma and in the assay with SN12C renal was > 100 µM in each case.

Turning to `CC(C)C(C)/C=C\C(C)C1CCC2C3=CC=C4CC(O)CCC4(C)C3CCC21C` (stereo not given), the TGI is > 61.6 µM in the assay with COLO 205 colon; > 67.7 µM in the assay with M14 melanoma; > 83.5 µM in the assay on MDA-MB-435; > 100 µM in the assay with NCI-H23 lung; > 100 µM in the assay on NCI-H522 lung; > 80.5 µM in the assay with OVCAR-3 ovarian. Moreover, the TGI was > 53.9 µM in the assay with OVCAR-8 ovarian, > 100 µM in the assay on PC-3 prostate, > 100 µM in the assay on SK-MEL-2 melanoma and > 60.2 µM with SN12C renal.

For `Cc1cc(O)c(/C=N/C(=S)NCc2ccccc2)c(=O)o1`, the TGI in the assay on COLO 205 colon, in the assay on M14 melanoma, in the assay with MDA-MB-435, in the assay on NCI-H23 lung, in the assay with NCI-H522 lung and in the assay with OVCAR-3 ovarian was > 100 µM in each case. Besides, the TGI in the assay with OVCAR-8 ovarian, with PC-3 prostate, in the assay with SK-MEL-2 melanoma and in the assay on SN12C renal was > 100 µM in each case.

In the case of `CCOC(=O)c1cc2nc3ccccc3c(=O)n2c2ccccc12`, the TGI in the assay on COLO 205 colon, in the assay on M14 melanoma, with MDA-MB-435, in the assay with NCI-H23 lung, with NCI-H522 lung and in the assay with OVCAR-3 ovarian was > 10 µM throughout. Besides, the TGI in the assay with OVCAR-8 ovarian, with PC-3 prostate, with SK-MEL-2 melanoma and with SN12C renal was > 10 µM each time.

As for `Cc1cc2c(cc1Cl)SC(N(N(C)C)S(=O)(=O)c1ccc(Cl)cc1)=NS2(=O)=O`, the GI50 in the assay on COLO 205 colon is 44 µM; with M14 melanoma, 27.8 µM; with MDA-MB-435 it was 33.2 µM; in the assay with NCI-H23 lung, 31.2 µM; in the assay on NCI-H522 lung, 11.1 µM; in the assay on OVCAR-3 ovarian it was 24 µM. In addition, the GI50 in the assay on OVCAR-8 ovarian was 36.6 µM; with PC-3 prostate, 22.4 µM; in the assay on SK-MEL-2 melanoma, 20.1 µM; with SN12C renal it was 24.3 µM. Also, the TGI in the assay on COLO 205 colon was > 100 µM; with M14 melanoma, > 100 µM; with MDA-MB-435, > 100 µM; in the assay on NCI-H23 lung, > 100 µM; in the assay with NCI-H522 lung, 43.9 µM; in the assay with OVCAR-3 ovarian, 61.6 µM. Besides, the TGI in the assay on OVCAR-8 ovarian was > 100 µM; in the assay with PC-3 prostate, > 100 µM; in the assay on SK-MEL-2 melanoma, 66.6 µM; with SN12C renal, 72 µM.
